Biological target: T1, human recombinant Yes [a.a. 2–543 (end)] (Homo sapiens, UniProt P07947)
T1 construct: human recombinant Yes [a.a; 2–543 (end)]; purchased BPS Bioscience 40488
Assay: ADP-Glo kinase assay, inhibition rates of Yes phosphorylation activity (first and second screening)
Assay type: biochemical
Details: 10 μmol L−1 compound; for First screening IR (inhibition rate): mean of n = 4 wells
Outline: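 ADP-Glo luminescence measured inhibition of human recombinant Yes (a.a. 2–543) phosphorylation activity. In the first screen, each compound ran in 4 wells and inhibition rates were averaged. The second screen retested hits as compounds dissolved from fresh powder.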

T1 sequence (P07947 2-543): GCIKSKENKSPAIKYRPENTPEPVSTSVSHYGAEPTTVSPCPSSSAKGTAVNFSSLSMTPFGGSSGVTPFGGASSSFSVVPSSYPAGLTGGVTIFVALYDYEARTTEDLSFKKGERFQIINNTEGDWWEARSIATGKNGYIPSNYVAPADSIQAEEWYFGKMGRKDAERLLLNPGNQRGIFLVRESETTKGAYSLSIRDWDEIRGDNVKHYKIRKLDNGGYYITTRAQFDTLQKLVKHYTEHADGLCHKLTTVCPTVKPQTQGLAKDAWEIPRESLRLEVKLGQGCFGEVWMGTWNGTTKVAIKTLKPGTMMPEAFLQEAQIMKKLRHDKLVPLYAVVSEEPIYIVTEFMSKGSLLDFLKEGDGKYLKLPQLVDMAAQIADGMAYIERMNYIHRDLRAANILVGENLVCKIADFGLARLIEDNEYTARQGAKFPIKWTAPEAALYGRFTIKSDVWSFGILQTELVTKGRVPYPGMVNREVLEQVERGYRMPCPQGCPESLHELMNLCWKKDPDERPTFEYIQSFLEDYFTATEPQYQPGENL

Structure (SMILES) | First screening IR (inhibition rate) [%] | Second screening IR (inhibition rate) (second screening, dissolved from fresh powder, n = 4) [%]
Cc1cc(C)c(C(=O)COc2ncnc3ccccc23)cc1C [Compound Z18537178] | 7 | –
COc1ccccc1NC(=O)c1ccc(NC(=O)COc2ccc(C3SCCS3)cc2)cc1 [Compound Z17289317] | 1 | –
CCOC(=O)C1=C(CN2CCN(Cc3nc4sc5c(c4c(=O)[nH]3)CCCC5)CC2)NC(=O)NC1CC (stereo not shown) [Compound Z46405175] | 0 | –
O=C1Nc2ccccc2/C1=C\c1c(Cl)nc2sccn12 [Compound Z46060818] | 24 | –
CC1CCc2c(sc3nc(-c4cccnc4)nc(N4CCCCCCC4)c23)C1 (stereo not shown) [Compound Z31262492] | 4 | –
Clc1ccc(/C=C2/CCCc3c2nc2ncnn2c3-c2ccc(Cl)cc2)cc1 [Compound Z56784275] | -10 | –
Cc1cc(=O)[nH]c(SCC(=O)c2ccc3c(c2)NC(=O)CO3)n1 [Compound Z56863397] | -14 | –
COc1ccc2c(c1)CC/C(=C\c1cccc(C)c1)C2=O [Compound Z46584406] | -6 | –
Cc1cc(/C=C/C(=O)N2CCN(C3CCS(=O)(=O)C3)CC2)c(C)n1-c1ccc2c(c1)OCO2 (stereo not shown) [Compound Z89622401] | -12 | –
COc1ccc(S(=O)(=O)N(C)Cc2ccc3c(c2)OCO3)cc1Br [Compound Z74745150] | -25 | –
CCN(CCO)c1nc(-c2ccccn2)nc2scc(-c3ccccc3)c12 [Compound Z31238841] | 19 | –
Cc1ccc(-c2nn(-c3ccc(F)cc3)cc2C(=O)N(C)CC(=O)Nc2ccc(N3CCOCC3)cc2)cc1 [Compound Z26593504] | 46 | –
CCOC(=O)c1ccc(-n2c(O)c(C=NCc3ccccn3)c3ccccc3c2=O)cc1 [Compound Z31275874] | -12 | –
Fc1ccc(/C=C2/CCCc3c2nc2ncnn2c3-c2ccc(F)cc2)cc1 [Compound Z56784264] | 8 | –
CN(Cc1ccc(OC(F)F)cc1)C(=O)CN1C(=O)NC(C)(c2ccccc2Br)C1=O (stereo not shown) [Compound Z14158957] | 23 | –
CN(C1CCS(=O)(=O)C1)S(=O)(=O)c1ccc(F)cc1 (stereo not shown) [Compound Z56813369] | -5 | –
CCOC(=O)c1c(-c2ccc(OC)c(OC)c2)csc1NC(=O)CN1CCN(c2cccc(OC)c2)CC1 [Compound Z46357060] | 5 | –
N#C/C(=C(/O)CN1CCN(S(=O)(=O)c2ccccc2C#N)CC1)c1nc2ccccc2[nH]1 [Compound Z48805202] | -4 | –

Structure (SMILES) | First screening IR (inhibition rate) [%] | Second screening IR (inhibition rate) (second screening, dissolved from fresh powder, n = 4) [%]
COCCn1cnc2c1c(=O)n(CC(=O)NC(=O)NC1CCCCC1C)c(=O)n2Cc1ccccc1 (stereo not shown) [Compound Z24102979] | -2 | –
CCOc1ccc(-n2c(O)c3ccc(C(=O)N=C4N=c5ccccc5=N4)cc3c2O)cc1 [Compound Z27664836] | -4 | –
COc1cccc(NC(=O)CN(C)CC(=O)Nc2cc(Cl)ccc2C#N)c1 [Compound Z46385937] | 3 | –
CCOc1ccc(-c2nc3ccccc3c(-c3ccccc3)c2Cl)cc1.Cl [Compound Z57038735] | 51 | 2
CC(NC(=O)CCc1c[nH]c2ccccc12)c1cc2ccccc2o1 (stereo not shown) [Compound Z91037735] | 1 | –
COc1ccc2c(c1)CC/C(=C\c1ccc(Cl)c(Cl)c1)C2=O [Compound Z46584361] | 30 | –
Cc1ccc(-c2nn3c(=O)c4c(C)c(C)sc4nc3c3ccccc23)cc1 [Compound Z55164044] | -6 | –
Cl.N#Cc1ccc(-c2cc(-c3ccccc3F)c3cc(Cl)ccc3n2)cc1 [Compound Z48955841] | 3 | –
CCCCCn1c(N)c(C(=O)NCCN2CCOCC2)c2nc3ccccc3nc21 [Compound Z56872965] | 48 | –
CCOC(=O)c1cc(-c2ccc3c(c2)OCCO3)nc2c1c(C)nn2CCC#N [Compound Z56631515] | 17 | –
CCS(=O)(=O)Nc1ccc(C2=NN(S(=O)(=O)c3ccc(C)cc3)C(c3ccco3)C2)cc1 (stereo not shown) [Compound Z57514609] | 23 | –
O=[N+]([O-])c1ccc2nc(CSc3ccc(C(F)(F)F)cn3)[nH]c2c1 [Compound Z45358726] | 7 | –
Cc1ccccc1Nc1nc(N)nc(CSc2ccccc2Cl)n1 [Compound Z18459341] | 17 | –
Cc1cc(SCC(=O)NC(=O)NC2CCCC2)nc2ccccc12 [Compound Z20243594] | 8 | –
COc1cc(/C=N/Nc2ncnc3scc(-c4ccccc4)c23)ccc1O [Compound Z49889617] | 13 | –
CN(C)S(=O)(=O)c1cccc(S(=O)(=O)c2cccc(S(=O)(=O)N(C)C)c2)c1 [Compound Z56877233] | 7 | –
O=C1Nc2cc(Cl)ccc2/C1=C\c1cnn(-c2ccccc2)c1 [Compound Z95046696] | 4 | –

Further lines, results first:

First screening IR (inhibition rate) [%] | Second screening IR (inhibition rate) (second screening, dissolved from fresh powder, n = 4) [%] | Structure (SMILES)
22 | – | FC(F)(F)c1ccnc(Nc2ccc3nc(N4CCCC4)sc3c2)n1 [Compound Z318995726]
6 | – | CC(NC(=O)C1=NN(c2ccc(F)cc2)C(C(N)=O)C1)c1ccc(F)cc1F (stereo not shown) [Compound Z295508576]
8 | – | O=C(COc1ccc(Br)cc1)Nc1cccc(Cn2ccnc2)c1 [Compound Z362662788]
3 | – | COC(=O)c1ccc(F)c(S(=O)(=O)N(C)C2C3CCOC3C2(C)C)c1 (stereo not shown) [Compound Z1252759503]
4 | – | Nc1ncnc2sc3c(c12)CCN(C(=O)c1ccc2c(c1)CCC2)C3 [Compound Z168757250]
17 | – | Cc1cc(N2CCCC(N3CCN(C(=O)c4ccncc4)CC3)C2=O)n(C)n1 (stereo not shown) [Compound Z1629496420]
5 | – | Cc1cc(C)n(-c2cncc(NC(C)c3nnc4ccccn34)n2)n1 (stereo not shown) [Compound Z1343207103]
10 | – | Fc1cc(NCc2cn[nH]c2-c2cccnc2)ccc1-n1ccnc1 [Compound Z1462562385]
15 | – | CC(SCc1nc(N)nc(N(C)C)n1)C(=O)Nc1cc(F)ccc1F (stereo not shown) [Compound Z197454478]
-35 | – | Cc1cc(NCc2nnc(C)n2C)c(C(N)=O)cc1F [Compound Z1618388683]
7 | – | O=c1[nH]cnc2c1c(-c1ccccc1)cn2-c1ccc(F)cc1 [Compound Z314617634]
39 | – | FC(F)(F)c1ccnc(Nc2ccc(NCc3ccccn3)cc2)n1 [Compound Z1192169075]
9 | – | Cc1nc(N(C)C(C)c2ccc([S+](C)[O-])cc2)c2cnn(C)c2n1 (stereo not shown) [Compound Z1324037636]
-2 | – | CC(C)CNC(=O)c1c(N)n(CCc2ccccc2)c2nc3ccccc3nc12 [Compound Z1033301058]
-9 | – | Cc1ccc([N+](=O)[O-])c(N2CCC(NCCO)CC2)c1 [Compound Z1576995201]
4 | – | Cc1cn2c3c(=O)n(CC(C)C)c(=O)n(C)c3nc2n1-c1ccc(S(N)(=O)=O)cc1 [Compound Z271111810]
12 | – | FC(F)(F)c1ccnc(Nc2cccc(/C=C/c3ccccn3)c2)n1 [Compound Z285694006]

First screening IR (inhibition rate) [%] | Second screening IR (inhibition rate) (second screening, dissolved from fresh powder, n = 4) [%] | Structure (SMILES)
-2 | – | Cc1cnc(C(=O)Nc2ccc3nc(-c4ccc(F)cc4)[nH]c3c2)cn1 [Compound Z651750688]
-8 | – | CCOC(=O)c1[nH]c(C)c(C(=O)CSc2n[nH]c(-c3ccccc3)n2)c1C [Compound Z225443610]
8 | – | CC(NC(=O)c1ccc2[nH]cnc2n1)c1ccc(-c2cncnc2)cc1 (stereo not shown) [Compound Z1669230171]
11 | – | COCc1nnc(-c2cccc(-c3nc(-c4cccs4)no3)c2)o1 [Compound Z1601587562]
-16 | – | CC(Oc1ccc(N(C)C(N)=O)cc1)c1nnc(-c2cccc(Cl)c2)o1 (stereo not shown) [Compound Z1329202056]
-4 | – | CCCN(CCC)S(=O)(=O)c1cccc(S(=O)(=O)N(C)C)c1 [Compound Z285950112]
17 | – | COc1ccc(C(=O)N[C@@H]2C(=O)Nc3c(c(C)nn3C)[C@H]2c2cccc(C(F)(F)F)c2)cc1OC [Compound Z98361471]
4 | – | COc1ccc(C(N)=O)c(OCc2cc(C)cc(C)c2)c1 [Compound Z165885974]
5 | – | Cc1cc(C(=O)CCC(=O)Nc2nc3c(s2)CN(C)CC3)c(C)s1 [Compound Z169940730]
4 | – | FC(F)(F)c1ccnc(Nc2ccc3c(c2)OC2(CCCCC2)O3)n1 [Compound Z285712986]
14 | – | Cc1ccc(-n2c(-c3ccccc3)cn3c4c(=O)n(CCN5CCOCC5)c(=O)n(C)c4nc23)cc1 [Compound Z237731508]
15 | – | COc1ccccc1C(=O)N=Nc1c(O)[nH]c2ccc(C)cc12 [Compound Z381428874]
2 | – | CC(C)S(=O)(=O)CCS(=O)(=O)Cc1ccccc1 [Compound Z1347350572]
-7 | – | COc1ccc(-c2csc3nc(C)nc(N4CCCN(CC(=O)NC(C)(C)C)CC4)c23)cc1OC [Compound Z128141646]
9 | – | N#Cc1ccc(C(=O)OCc2ccc(Br)cn2)[nH]1 [Compound Z1616590793]
15 | – | Cc1cnc(CCSc2ncc(-c3ccc(F)cc3)o2)cn1 [Compound Z1688195829]
-6 | – | OCCn1ncc2c(NCCc3nnc4ccccn34)ncnc21 [Compound Z990848218]
